Reference: patent publication EP0627444B1, “Monoacetic derivatives of the peptides leu-phe-ala and ala-leu-phe and their use in identifying and destroying tumour cells, viruses and virus-carrying cells” (priority 1993, dated 1998)
Values joined by “and” are separate entries in the source; they are usually repeats but may differ in a detail not shown here. Equal entries are not always repeated.

Assays:
NK lymphocytes = assay: Activation test for NK lymphocytes assessed by means of rosette formation; assay type: in vivo, female mice belonging to BALB/C strain; settings: Lot B controls, muramyl dipeptide only
Description: In carrying out such a test, all six isomers of the monoacetic derivative of the peptide were used, individually, both in normoergic (germ free) animals (lot A) and in animals previously immunized with muramyl dipeptide (lot B). The method and results of the test are hereinafter reported.
A number of groups, each consisting of 18 randomized animals, were inoculated with 0.1 ml/each of normal saline solution (controls) or 0.1 ml/each of monoacetic peptide in its 6 possible isomers dissolved in normal saline solution. The 17.5 mg/kg dose administered to the animals corresponds to 1/20 of the LD found with respect to these peptides.
Treated and control animals were sacrificed in groups of 6 on the 11th, 13th and 18th day after the inoculation of the normal saline solution or of the peptide. […]
Cell survival was assessed by means of the supravital staining technique with trypan blue. […]
FCS, at a 10% ratio, was added to the above mentioned suspension. Following 5 minutes of incubation at +37 °C and 5 minutes of centrifugation at 200 rpm, the samples were incubated at +4 °C for 18 hours prior to reading the results.
The lymphocytes encircled by 3 or more ram's erythrocytes were considered as rosette-forming lymphocytes. The significance was assessed by means of Student's "T" test. […]

Lewis Lung Carcinoma = assay: Lewis Lung Carcinoma, third set of experiments (with MDP); assay type: in vivo, female mice C57BI/6
Description: The tested compound was Ala-Leu-Phe = P1 (SF080) (17.5 mg/kg) in the model of tumour disease caused by Lewis Lung Carcinoma. The compound was also evaluated in combination with muramyl dipeptide (MDP).
Animals: female mice C57BI/6 (Charles River) the average weight of which was 20g were used. The experiment involved overall 48 mice.
The tumour cells of LLC were obtained from the fourth passage of tumour cells. The total number of cells was 2 x 10^5 in 0.1 ml of Hanks solution. The cells were injected subcutaneously into axillary region.
The peptide P1 was administered i.p. in suspension with propylenglycol (0.1 ml/50 ml) in physiological solution. […] The same way of administration as in tested animals (i.p.) was used.
The animals were divided into 4 groups each having 12 mice. In groups 2 and 3 MDP was administered subcutaneously in a dose of 100 µg (0.5 ml physiol. solution per mouse). The protocol of the test is as follows.
The animals in all groups were observed daily for tumour growth. In the control group the tumour growth was so rapid and the animals were in such a condition that the experiment was terminated after 18 days from the administration of tumour cells. Mice were sacrificed and tumour mass was excised and weighed. Both lobes of lungs were inspected for the presence of metastases.
The following parameters have been evaluated in this experiment: • a) the percentage of animals not having the tumour • b) the average weight of the tumour • c) the percentage of animals with metastases in lungs • d) the average number of metastases in case of positive animals
Statistical analysis was performed by the method of one factorial analysis of variance (ANOVA), Dunnett's test and chi-square test. […]

[1] = group 2: MDP 100 µg s.c. day -3, day 18

Substance: muramyl dipeptide [MDP]
- rosette formation after preventive immunization (NK lymphocytes): significant decrement
- Weight of tumours, AVG (Lewis Lung Carcinoma; [1]): 3.24 g
- Weight of tumours, SUM (Lewis Lung Carcinoma; [1]): 29.16 g
- average number of metastases, AVG (Lewis Lung Carcinoma; [1]): 1
- metastase free animals (Lewis Lung Carcinoma; [1]): 64%
- number of metastases, SUM (Lewis Lung Carcinoma; [1]): 9
- tumour-free animals (Lewis Lung Carcinoma; [1]): 18%
- number of metastases (meta) (Lewis Lung Carcinoma; individual animals, lungs, group 2: MDP 100 µg s.c. day -3, day 18): 1 and 3 (2×) and 0 (7×) and 2
- Weight of tumours (Lewis Lung Carcinoma; individual animals, group 2: MDP 100 µg subcutaneously day -3, 18 days after tumour cells): 4.88 g and 4.48 g and 1.97 g and 3.13 g and 0 g (2×) and 3.57 g and 2.72 g and 1.81 g and 4.11 g and 2.49 g
